Experimental data taken from patent US6753177B1, “P-glycoproteins and uses thereof” (Becton Dickinson and Company, priority 1999, dated 2004).

Molecular target: T1, dog PGP (Canis lupus familiaris, UniProt C0KKU9)
T1 construct: expressed in transfected cells; host or cells: LLC-PK1 cells (ATCC), electroporated with the p222CMV episomal vector and selected with hygromycin B
Assay: Polarization of vinblastine transport across dog PGP transfected LLC-PK1 cell monolayers in Transwells
Format: cell-based
Details: PGP transfected cells, compared with control cells; vinblastine (0.1 uM) transport in Transwells
Source text: Dog PGP cDNA (SEQ ID NO:1) is introduced into a clonal population of LLC-PK1 cells in a vector that confers resistance to hygromycin B. LLC-PK1 cells are obtained from the American Type Culture Collections and are propagated in Medium 199 supplemented to 7% with fetal bovine serum. LLC-PK1 cells are recloned prior to transfection in order to assure homogeneity of the cell population. Briefly, dog PGP cDNA is incorporated into the p222CMV vector. […] The PGP cDNA is under the control of the cytomegalovirus (CMV) immediate early promoter. The vector confers resistance to hygromycin B. Cells (in 0.4 mL) and DNA (10 to 20 μg) were transfected by electroporation using a BTX Electro cell manipulator model 600 using a 2 mm gap cell, 100V, 2500 μF capacitance and 72 ohm resistance. […] Expression of PGP is measured by the polarization of vinblastine (0.1 uM) transport in Transwells™.
LLC-PK1 cell based transport studies are conducted in 24 well Transwells™ (Corning Costar, Catalog number 3415). […] Transport is measured under sink conditions in both the apical to basolateral (A to B) and basolateral to apical (B to A) directions. […] Quantitation of the amount of compound transported is by liquid scintillation counting (vinblastine) or HPLC with UV or mass spectrometric detection.
Functional expression of dog PGP is measured by the polarization of transport of vinblastine.

T1 sequence (C0KKU9 1-1281): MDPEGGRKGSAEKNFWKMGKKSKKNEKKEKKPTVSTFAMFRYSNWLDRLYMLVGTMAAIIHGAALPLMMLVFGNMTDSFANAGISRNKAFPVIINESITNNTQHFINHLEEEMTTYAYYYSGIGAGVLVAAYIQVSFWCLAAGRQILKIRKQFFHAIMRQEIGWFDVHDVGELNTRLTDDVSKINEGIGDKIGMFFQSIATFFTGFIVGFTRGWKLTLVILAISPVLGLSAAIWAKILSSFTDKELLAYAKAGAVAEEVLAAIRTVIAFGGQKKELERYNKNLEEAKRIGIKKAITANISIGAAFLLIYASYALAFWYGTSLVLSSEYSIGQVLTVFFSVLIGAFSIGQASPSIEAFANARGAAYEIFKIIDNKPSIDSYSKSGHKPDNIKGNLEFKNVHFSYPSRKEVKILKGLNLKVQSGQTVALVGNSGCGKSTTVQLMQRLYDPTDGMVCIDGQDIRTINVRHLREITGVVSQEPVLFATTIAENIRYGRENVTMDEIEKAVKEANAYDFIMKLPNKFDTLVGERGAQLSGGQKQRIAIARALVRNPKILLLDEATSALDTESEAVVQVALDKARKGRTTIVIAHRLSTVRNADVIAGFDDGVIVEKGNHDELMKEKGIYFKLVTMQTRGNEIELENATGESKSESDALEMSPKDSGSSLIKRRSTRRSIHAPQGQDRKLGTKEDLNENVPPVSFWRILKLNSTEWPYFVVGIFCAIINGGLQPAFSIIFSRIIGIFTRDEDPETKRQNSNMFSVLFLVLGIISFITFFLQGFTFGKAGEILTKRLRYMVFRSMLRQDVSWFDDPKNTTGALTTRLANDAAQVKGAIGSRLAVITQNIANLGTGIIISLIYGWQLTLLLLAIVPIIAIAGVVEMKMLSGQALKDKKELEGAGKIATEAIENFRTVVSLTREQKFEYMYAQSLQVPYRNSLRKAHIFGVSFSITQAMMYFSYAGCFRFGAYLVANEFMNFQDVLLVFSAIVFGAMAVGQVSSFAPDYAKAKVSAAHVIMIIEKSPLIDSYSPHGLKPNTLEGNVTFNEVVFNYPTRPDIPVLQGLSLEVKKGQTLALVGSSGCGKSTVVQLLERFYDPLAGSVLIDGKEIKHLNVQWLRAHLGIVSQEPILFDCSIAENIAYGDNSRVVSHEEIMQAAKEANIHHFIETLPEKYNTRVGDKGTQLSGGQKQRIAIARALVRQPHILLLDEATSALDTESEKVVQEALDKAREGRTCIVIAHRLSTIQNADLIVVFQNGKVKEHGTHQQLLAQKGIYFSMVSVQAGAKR

Structure (SMILES): CC[C@]1(O)C[C@@H]2CN(CCc3c([nH]c4ccccc34)[C@@](C(=O)OC)(c3cc4c(cc3OC)N(C)[C@H]3[C@@](O)(C(=O)OC)[C@H](OC(C)=O)[C@]5(CC)C=CCN6CC[C@]43[C@@H]65)C2)C1 [vinblastine]
- B to A/A to B ratio: much higher ratio
